Assay results taken from paper PMC10004634 (PLOS ONE, 2023).
Where two headings read alike, the source gives them in different places.

Columns and labels:
Test in all cases: biochemical
Design in all cases: KINOMEscan scanMAX competition binding, DNA-tagged kinases, qPCR read-out, percent control at 300 nM
KIT = KIT (Homo sapiens, UniProt P10721)
MEK1 = molecular target: T1, MEK1 (Homo sapiens, UniProt Q02750)
T1 construct: gene MAP2K1

MELK = MELK (Homo sapiens, UniProt Q14680)
RIOK1 = molecular target: T2, RIOK1 (Homo sapiens, UniProt Q9BRS2)
T2 sequence (Q9BRS2 1-568): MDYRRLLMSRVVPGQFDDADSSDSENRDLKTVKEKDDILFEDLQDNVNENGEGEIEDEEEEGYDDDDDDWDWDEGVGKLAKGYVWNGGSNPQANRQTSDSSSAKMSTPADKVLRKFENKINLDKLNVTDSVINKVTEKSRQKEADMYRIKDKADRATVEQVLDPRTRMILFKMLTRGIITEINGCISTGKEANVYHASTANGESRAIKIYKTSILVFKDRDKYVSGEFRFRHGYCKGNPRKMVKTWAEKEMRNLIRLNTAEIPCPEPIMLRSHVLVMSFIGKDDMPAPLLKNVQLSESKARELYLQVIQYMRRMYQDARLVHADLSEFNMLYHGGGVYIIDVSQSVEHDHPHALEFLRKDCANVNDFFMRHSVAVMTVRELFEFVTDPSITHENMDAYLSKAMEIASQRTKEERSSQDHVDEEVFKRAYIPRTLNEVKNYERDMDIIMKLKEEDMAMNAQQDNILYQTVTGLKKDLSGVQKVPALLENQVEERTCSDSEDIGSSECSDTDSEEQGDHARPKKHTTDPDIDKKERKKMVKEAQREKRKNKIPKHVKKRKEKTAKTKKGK

CDKL2 = molecular target: T3, CDKL2 (Homo sapiens, UniProt Q92772)
T3 sequence (Q92772 1-493): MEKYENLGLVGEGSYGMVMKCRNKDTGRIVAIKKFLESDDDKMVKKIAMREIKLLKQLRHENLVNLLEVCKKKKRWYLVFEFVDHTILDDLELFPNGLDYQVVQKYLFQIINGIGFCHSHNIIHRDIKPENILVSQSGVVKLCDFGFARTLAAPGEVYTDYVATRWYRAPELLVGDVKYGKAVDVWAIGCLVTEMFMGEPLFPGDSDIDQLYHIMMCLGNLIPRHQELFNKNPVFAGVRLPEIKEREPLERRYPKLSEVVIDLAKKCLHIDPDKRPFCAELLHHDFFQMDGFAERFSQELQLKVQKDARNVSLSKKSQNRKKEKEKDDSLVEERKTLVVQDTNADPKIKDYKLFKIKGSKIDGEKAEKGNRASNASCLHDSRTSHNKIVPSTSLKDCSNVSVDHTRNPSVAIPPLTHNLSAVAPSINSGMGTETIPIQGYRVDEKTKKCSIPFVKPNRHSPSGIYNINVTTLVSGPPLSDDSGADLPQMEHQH

TAOK1 = molecular target: T4, TAOK1 (Homo sapiens, UniProt Q7L7X3)
T4 sequence (Q7L7X3 1-1001): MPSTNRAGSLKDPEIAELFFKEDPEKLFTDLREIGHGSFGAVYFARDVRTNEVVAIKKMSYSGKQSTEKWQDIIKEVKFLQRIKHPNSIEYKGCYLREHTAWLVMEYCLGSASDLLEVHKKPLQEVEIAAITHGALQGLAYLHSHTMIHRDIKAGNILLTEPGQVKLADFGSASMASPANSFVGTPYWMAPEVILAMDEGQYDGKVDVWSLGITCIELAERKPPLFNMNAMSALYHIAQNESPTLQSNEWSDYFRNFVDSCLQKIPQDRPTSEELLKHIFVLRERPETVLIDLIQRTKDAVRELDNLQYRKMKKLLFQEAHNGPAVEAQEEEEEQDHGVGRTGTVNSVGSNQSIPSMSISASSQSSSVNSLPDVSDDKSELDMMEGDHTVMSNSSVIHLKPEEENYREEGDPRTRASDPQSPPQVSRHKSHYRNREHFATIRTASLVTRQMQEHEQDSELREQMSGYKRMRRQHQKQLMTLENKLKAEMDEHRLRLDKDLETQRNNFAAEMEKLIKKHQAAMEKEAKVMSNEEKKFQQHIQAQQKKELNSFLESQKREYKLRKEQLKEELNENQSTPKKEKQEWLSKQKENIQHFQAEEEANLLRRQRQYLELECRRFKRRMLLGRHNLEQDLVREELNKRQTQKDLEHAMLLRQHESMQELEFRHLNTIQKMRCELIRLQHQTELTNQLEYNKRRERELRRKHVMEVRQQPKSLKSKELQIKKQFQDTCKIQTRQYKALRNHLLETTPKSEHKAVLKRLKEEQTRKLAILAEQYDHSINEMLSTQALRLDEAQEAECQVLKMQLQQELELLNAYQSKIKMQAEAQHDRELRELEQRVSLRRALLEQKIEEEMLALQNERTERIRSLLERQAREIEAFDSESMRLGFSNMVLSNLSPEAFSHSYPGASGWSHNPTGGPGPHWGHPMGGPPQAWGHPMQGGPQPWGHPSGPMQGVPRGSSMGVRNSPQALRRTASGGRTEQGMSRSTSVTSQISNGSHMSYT

[1] = read-out: Percent control / Acalabrutinib
[2] = read-out: Percent control / Ibrutinib
[3] = read-out: Percent control / Tirabrutinib
[4] = read-out: Percent control / Zanubrutinib

Sequence of KIT (P10721 whole entry): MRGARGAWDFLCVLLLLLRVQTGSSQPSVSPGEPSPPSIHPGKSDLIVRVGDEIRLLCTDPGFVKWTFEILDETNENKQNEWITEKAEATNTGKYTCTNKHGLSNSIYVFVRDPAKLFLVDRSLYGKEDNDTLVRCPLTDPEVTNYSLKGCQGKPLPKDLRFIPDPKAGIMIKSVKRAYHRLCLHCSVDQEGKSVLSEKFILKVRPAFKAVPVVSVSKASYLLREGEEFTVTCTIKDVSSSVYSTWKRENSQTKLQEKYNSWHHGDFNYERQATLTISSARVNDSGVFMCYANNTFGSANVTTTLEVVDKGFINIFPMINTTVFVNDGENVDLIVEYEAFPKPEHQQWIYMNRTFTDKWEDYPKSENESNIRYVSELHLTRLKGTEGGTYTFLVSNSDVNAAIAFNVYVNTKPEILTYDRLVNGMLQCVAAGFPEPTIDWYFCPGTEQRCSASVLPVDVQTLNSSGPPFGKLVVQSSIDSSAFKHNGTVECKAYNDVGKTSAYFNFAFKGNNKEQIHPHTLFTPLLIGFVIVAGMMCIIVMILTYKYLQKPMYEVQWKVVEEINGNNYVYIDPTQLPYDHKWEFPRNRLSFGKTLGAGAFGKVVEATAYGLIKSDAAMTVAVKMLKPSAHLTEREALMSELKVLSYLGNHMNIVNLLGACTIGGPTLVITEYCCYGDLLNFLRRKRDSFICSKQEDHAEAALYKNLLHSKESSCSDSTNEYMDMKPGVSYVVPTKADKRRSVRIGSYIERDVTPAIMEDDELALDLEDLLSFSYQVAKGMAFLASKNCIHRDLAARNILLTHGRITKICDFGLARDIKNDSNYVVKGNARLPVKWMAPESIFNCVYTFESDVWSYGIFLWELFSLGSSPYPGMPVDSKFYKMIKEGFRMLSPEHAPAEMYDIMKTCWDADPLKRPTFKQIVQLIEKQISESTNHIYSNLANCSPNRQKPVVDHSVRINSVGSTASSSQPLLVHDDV
Sequence of MELK (Q14680 whole entry): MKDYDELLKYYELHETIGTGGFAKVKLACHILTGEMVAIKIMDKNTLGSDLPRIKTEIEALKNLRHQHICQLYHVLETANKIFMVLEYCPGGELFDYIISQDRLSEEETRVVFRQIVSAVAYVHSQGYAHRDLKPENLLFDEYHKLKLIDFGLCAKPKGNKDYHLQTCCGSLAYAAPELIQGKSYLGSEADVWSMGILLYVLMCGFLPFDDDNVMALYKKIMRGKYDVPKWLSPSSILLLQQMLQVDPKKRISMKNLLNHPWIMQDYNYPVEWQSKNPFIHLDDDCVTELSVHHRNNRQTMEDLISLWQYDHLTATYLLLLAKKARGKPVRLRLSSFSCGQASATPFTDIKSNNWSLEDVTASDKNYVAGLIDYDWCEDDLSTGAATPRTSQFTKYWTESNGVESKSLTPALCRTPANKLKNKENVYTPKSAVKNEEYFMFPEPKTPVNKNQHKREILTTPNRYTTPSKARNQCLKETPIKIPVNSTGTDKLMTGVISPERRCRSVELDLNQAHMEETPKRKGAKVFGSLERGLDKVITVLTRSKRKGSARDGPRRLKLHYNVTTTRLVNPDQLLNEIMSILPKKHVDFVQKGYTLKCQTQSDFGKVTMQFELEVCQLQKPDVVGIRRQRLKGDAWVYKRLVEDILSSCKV
T1 sequence (Q02750 whole entry): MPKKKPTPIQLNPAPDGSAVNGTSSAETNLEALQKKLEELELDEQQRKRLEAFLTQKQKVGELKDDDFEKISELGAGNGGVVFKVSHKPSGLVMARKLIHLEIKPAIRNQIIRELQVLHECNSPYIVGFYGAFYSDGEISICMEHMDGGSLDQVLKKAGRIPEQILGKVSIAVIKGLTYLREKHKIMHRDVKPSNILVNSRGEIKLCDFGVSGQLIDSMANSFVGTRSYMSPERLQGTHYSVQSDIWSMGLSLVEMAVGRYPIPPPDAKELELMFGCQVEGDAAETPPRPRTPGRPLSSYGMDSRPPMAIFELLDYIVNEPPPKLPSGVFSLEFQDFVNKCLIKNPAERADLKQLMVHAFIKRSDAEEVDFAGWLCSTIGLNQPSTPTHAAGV

Work on CC#CC(=O)N1CCC[C@H]1c1nc(-c2ccc(C(=O)Nc3ccccn3)cc2)c2c(N)nccn12 [Acalabrutinib] yielded a remaining binding at 0.3 µM (KIT; [1]) of 91%, a remaining binding at 0.3 µM (MEK1; [1]) of 96% and a remaining binding at 0.3 µM (MELK; [1]) of 81%. The remaining binding at 0.3 µM (RIOK1; [1]) was 72%.

With C=CC(=O)N1CCC[C@@H](n2nc(-c3ccc(Oc4ccccc4)cc3)c3c(N)ncnc32)C1 [Ibrutinib] the remaining binding at 0.3 µM (CDKL2; [2]) was 99%, the remaining binding at 0.3 µM (MEK1; [2]) was 91% and the remaining binding at 0.3 µM (MELK; [2]) was 74%. It also gave a remaining binding at 0.3 µM (RIOK1; [2]) of 51% and a remaining binding at 0.3 µM (TAOK1; [2]) of 81%.

With CC#CC(=O)N1CC[C@@H](n2c(=O)n(-c3ccc(Oc4ccccc4)cc3)c3c(N)ncnc32)C1 [Tirabrutinib] the remaining binding at 0.3 µM (CDKL2; [3]) was 84%, the remaining binding at 0.3 µM (KIT; [3]) was 91% and the remaining binding at 0.3 µM (MELK; [3]) was 82%. For the same compound, the remaining binding at 0.3 µM (RIOK1; [3]) was 79% and the remaining binding at 0.3 µM (TAOK1; [3]) was 82%.

C=CC(=O)N1CCC([C@@H]2CCNc3c(C(N)=O)c(-c4ccc(Oc5ccccc5)cc4)nn32)CC1 [Zanubrutinib] gave a remaining binding at 0.3 µM (CDKL2; [4]) of 100%, a remaining binding at 0.3 µM (KIT; [4]) of 100% and a remaining binding at 0.3 µM (MEK1; [4]) of 4.1%. For the same compound, the remaining binding at 0.3 µM (MELK; [4]) was 59%, the remaining binding at 0.3 µM (RIOK1; [4]) was 75% and the remaining binding at 0.3 µM (TAOK1; [4]) was 63%.
